Experiments:
S. cerevisiae Chs1 [1] = target: T1, S. cerevisiae Chs1 (Saccharomyces cerevisiae, UniProt P08004); experiment: in vitro chitin synthase activity assay; type: biochemical; conditions: activator; UDP-GlcNAc as donor substrate
T1 construct: expressed and purified membrane protein, homodimer; residues numbered to 1131; residues 1-377, 699-703, 897-907, 1076-1084 not resolved
T1 sequence (P08004 1-1131): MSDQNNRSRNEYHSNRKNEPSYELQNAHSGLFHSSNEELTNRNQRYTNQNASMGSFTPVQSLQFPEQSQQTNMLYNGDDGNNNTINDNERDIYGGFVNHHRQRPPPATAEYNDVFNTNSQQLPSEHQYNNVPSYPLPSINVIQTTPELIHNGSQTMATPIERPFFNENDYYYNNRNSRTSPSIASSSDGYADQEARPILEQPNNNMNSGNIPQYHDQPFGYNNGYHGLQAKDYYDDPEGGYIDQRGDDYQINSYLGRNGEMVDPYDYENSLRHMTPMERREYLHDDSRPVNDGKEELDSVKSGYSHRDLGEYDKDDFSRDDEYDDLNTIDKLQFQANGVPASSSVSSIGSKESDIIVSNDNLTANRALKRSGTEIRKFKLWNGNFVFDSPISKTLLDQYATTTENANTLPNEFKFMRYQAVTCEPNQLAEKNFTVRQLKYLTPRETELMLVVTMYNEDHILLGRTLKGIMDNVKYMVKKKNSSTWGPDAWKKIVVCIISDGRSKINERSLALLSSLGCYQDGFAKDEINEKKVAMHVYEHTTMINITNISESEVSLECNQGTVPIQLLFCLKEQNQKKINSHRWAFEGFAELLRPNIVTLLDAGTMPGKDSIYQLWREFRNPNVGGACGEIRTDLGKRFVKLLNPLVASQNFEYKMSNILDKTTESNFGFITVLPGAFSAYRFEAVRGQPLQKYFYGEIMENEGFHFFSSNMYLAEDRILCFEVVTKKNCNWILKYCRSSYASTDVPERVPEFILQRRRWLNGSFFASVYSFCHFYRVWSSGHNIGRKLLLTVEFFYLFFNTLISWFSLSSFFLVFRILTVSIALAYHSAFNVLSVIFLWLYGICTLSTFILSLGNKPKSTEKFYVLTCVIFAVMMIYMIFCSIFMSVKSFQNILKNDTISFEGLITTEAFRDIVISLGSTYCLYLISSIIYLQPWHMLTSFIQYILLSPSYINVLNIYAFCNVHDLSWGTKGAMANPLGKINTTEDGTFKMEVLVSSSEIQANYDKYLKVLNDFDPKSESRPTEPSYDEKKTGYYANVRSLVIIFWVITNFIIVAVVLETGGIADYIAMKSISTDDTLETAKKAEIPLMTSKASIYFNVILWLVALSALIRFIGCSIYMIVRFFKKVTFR

S. cerevisiae Chs1 [2] = target: T1, S. cerevisiae Chs1; experiment: in vitro chitin synthase activity assay; cryo-EM structure of the complex at […] A also solved; type: biochemical
[3] = target: the molecule itself; experiment: cryo-EM structure; purified Chs1 in complex with Nikkomycin Z (NikZ), in detergent micelle; 2.9 Å, imposed C2 symmetry

`CC(=O)N[C@H]1C(O)O[C@H](CO)[C@@H](O)[C@@H]1O` (stereo partly drawn) [N-acetylglucosamine] was tested. Which “in vitro chitin synthase activity assay” value (S. cerevisiae Chs1 [1]) did it give?
Its value is “Chs1 activity can be significantly stimulated by GlcNAc”.

`C[C@@H]([C@H](N)C(=O)N[C@H](C(=O)O)[C@H]1O[C@@H](n2ccc(=O)[nH]c2=O)[C@H](O)[C@@H]1O)[C@H](O)c1ccc(O)cn1` [Nikkomycin Z] was tested. Which IC50 (S. cerevisiae Chs1 [2]) did it give?
Its IC50 is 367 nM.

B1: S. cerevisiae chitin synthase Chs1 (enzyme)
chain: T1 sequence (P08004 1-1131)
notes: Chitin synthase 1 (Chs1) of S. cerevisiae; residues 1-377, 699-703, 897-907 and 1076-1084 are not resolved in the map; Homodimer; source: expressed and purified
For B1, which “stoichiometry N” value [3] is on record?
Its value is 2.
